Earlier results, collected in patent US20060051406A1, “Formulation of insoluble small molecule therapeutics in lipid-based carriers” (priority 2004, published 2006).

Settings: lipid transition temperature (gel to liquid crystalline phase)

Row | Tm [°C] | SMILES
1 | 23 | CCCCCCCCCCCCCC(=O)OC[C@H](COP(=O)([O-])OCC[N+](C)(C)C)OC(=O)CCCCCCCCCCCCC [Dimyristoylphosphatidylcholine]
2 | −22 | CCCCCCCC/C=C\CCCCCCCC(=O)OC[C@H](COP(=O)([O-])OCC[N+](C)(C)C)OC(=O)CCCCCCC/C=C\CCCCCCCC [Dioleoylphosphatidylcholine, 1,2-dioleoyl-sn-glycero-3-phosphocholine]
3 | 41 | CCCCCCCCCCCCCCCC(=O)OC[C@H](COP(=O)([O-])OCC[N+](C)(C)C)OC(=O)CCCCCCCCCCCCCCC [Dipalmitoylphosphatidylcholine]
4 | 55 | CCCCCCCCCCCCCCCCCC(=O)OC[C@H](COP(=O)([O-])OCC[N+](C)(C)C)OC(=O)CCCCCCCCCCCCCCCCC [Distearoylphosphatidylcholine]
